Patent US6369225B1, “Compounds having activity as inhibitors of cytochrome P450RAI” (Allergan Sales, Inc., priority 2000, dated 2002)

Key:
[1] = target: T1, P450RAI-1 (Homo sapiens, UniProt O43174); assay: P450RAI-1 cell-based inhibitor assay; details: P450RAI-1 stably transfected HeLa cells, [3H]-RA metabolism, 3 hours at 37° C.; read-out: P450RAI INHIBITION DATA INTACT HELA IC50
T1 construct: expressed in transfected cells; host or cells: HeLa cells, stably transfected, hygromycin selection
T1 sequence (O43174 1-497): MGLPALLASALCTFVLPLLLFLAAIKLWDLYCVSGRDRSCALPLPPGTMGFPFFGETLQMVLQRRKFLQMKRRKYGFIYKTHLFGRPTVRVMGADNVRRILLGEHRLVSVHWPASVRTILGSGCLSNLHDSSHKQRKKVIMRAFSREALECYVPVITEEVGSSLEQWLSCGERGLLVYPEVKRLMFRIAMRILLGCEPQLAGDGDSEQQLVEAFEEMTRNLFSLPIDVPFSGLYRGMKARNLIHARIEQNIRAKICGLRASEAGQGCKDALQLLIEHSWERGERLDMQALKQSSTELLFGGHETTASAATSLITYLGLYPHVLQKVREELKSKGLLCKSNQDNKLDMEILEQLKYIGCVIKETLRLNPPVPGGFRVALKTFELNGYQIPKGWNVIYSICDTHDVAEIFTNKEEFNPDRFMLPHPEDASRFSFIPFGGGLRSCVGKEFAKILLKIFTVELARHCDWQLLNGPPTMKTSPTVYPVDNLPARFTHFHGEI
Description: P450RAI-1 stably transfected HeLa cells are maintained in […] tissue culture dishes in Modified Eagle's Medium (MEM) containing 10% Fetal Bovine Serum (FBS) and 100 μg/ml hygromycin. Exponentially growing cells are harvested by incubating in trypsin. Cells are then washed with 1× Phosphate Buffered Saline (PBS) and plated in a 48-well plate at 5×10^5 cells in 0.2 ml MEM medium containing 10% FBS and 0.05 μCi[^3H]-RA in the presence or absence of increasing concentrations of the test compounds. The compounds are diluted in 100% DMSO and then added in triplicate wells at either 10, 1 or 0.1 μM final concentration. As a positive control for RA metabolism inhibition, cells are also incubated with ketoconazole at 100, 10 and 1 μM. Cell are incubated for 3 hours at 37° C. […] The water soluble radioactivity is quantified using a β-scintillation counter. IC50 values represent the concentration of inhibitor required to inhibit all-trans-RA metabolism by 50 percent and are derived manually from log-transformed data.

[2] = test system: skin of hairless mice; assay: topical skin irritation test in hairless mice; assay type: in vivo, mouse; details: topical in acetone, once daily days 1 through 5, mean ±SD, range 0-21
Description: Mice were housed individually throughout the dosing period.
Doses are disclosed as nmol/25 g.
The grading scale used is as follows:
Values can range from 0-9.
Values can range from 0-8.

[3] = target: T2, RARγ (Homo sapiens, UniProt P13631); assay: ligand binding assay, RARγ; details: Kd line of EC50/(EFFICACY)/Kd, read-out: RAR Kd γ
T2 sequence (P13631 1-454): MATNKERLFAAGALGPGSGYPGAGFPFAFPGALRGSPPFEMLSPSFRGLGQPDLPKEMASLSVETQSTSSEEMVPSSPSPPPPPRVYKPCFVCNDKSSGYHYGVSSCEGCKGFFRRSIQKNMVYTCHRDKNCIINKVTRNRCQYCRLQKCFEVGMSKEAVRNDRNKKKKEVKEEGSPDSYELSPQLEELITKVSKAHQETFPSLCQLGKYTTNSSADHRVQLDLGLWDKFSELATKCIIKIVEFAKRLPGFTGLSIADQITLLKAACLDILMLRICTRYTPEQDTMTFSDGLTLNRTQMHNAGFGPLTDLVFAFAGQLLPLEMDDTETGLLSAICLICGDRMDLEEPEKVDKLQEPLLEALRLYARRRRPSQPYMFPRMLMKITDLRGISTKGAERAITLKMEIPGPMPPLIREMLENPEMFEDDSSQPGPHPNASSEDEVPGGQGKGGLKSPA
Description: (§1) Assays described below measure the ability of a compound to bind to, and/or activate various retinoid receptor subtypes. When in these assays a compound binds to a given receptor subtype and activates the transcription of a reporter gene through that subtype, then the compound is considered an agonist of that receptor subtype. […] In the below described assays the ability of the compounds to bind to RARα, RARβ, RARγ, RXRα, RXRβ and RXRγ receptors, and the ability or inability of the compounds to activate transcription of a reporter gene through these receptor subtypes can be tested.
(§2) A holoreceptor transactivation assay and a ligand binding assay which measure the antagonist/agonist like activity of the compounds of the invention, or their ability to bind to the several retinoid receptor subtypes, respectively, are described in published PCT Application No. WO WO93/11755 (particularly on pages 30-33 and 37-41) published on Jun. 24, 1993, the specification of which is also incorporated herein by reference. A detailed experimental procedure for holoreceptor transactivations has been described by Heyman et al. Cell 68, 397-406, (1992); Allegretto et al. J. Biol. Chem. 268, 26625-26633, and Mangelsdorf et al. The Retinoids: Biology, Chemistry and Medicine, pp 319-349, Raven Press Ltd., New York, which are expressly incorporated herein by reference. The results obtained in this assay are expressed in EC50 numbers, as they are also in the chimeric receptor transactivation assay. The results of ligand binding assay are expressed in Kd numbers. (See Cheng et al. Biochemical Pharmacology Vol. 22 pp 3099-3108, expressly incorporated herein by reference.)
(§3) The results if the ligand binding assay for several preferred compounds of the invention are included in Table 1.

[4] = target: T3, RARα (Homo sapiens, UniProt P10276); assay: ligand binding assay, RARα; details: Kd line of EC50/(EFFICACY)/Kd, read-out: RAR Kd α
T3 sequence (P10276 1-462): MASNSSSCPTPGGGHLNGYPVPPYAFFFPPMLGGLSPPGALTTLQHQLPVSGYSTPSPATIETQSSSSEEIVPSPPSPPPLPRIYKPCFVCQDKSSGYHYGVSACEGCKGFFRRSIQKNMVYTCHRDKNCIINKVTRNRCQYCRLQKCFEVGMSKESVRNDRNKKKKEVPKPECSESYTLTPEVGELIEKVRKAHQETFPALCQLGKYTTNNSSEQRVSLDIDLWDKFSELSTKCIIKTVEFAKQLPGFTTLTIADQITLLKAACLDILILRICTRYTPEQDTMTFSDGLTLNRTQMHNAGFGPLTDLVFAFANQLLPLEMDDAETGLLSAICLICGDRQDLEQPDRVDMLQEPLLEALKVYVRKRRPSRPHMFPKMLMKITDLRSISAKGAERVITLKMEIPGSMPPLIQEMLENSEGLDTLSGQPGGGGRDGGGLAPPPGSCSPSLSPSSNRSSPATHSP
Description: as §1, §2, §3

[5] = target: T4, RARβ (Homo sapiens, UniProt P10826); assay: ligand binding assay, RARβ; details: Kd line of EC50/(EFFICACY)/Kd, read-out: RAR Kd β
T4 sequence (P10826 1-455): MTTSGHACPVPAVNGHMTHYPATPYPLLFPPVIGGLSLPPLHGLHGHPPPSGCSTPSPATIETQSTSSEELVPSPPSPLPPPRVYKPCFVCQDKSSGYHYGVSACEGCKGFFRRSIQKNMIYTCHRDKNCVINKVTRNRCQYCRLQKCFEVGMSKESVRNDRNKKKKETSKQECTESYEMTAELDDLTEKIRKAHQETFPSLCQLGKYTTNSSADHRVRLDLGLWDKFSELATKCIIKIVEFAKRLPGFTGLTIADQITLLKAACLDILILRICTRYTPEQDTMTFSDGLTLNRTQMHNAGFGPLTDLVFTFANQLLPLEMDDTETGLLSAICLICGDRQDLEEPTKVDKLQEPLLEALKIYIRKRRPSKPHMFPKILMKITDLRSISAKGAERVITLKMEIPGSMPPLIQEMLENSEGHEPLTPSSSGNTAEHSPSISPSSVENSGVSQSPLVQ
Description: as §1
as §2, with “A detailed experimental procedure for holoreceptor transactivations has been described by Heyman et al. Cell 68, 397-406, (1992); Allegretto et al. J. Biol. Chem. 268, 26625-26633, and Mangelsdorf et al. The Retinoids: Biology, Chemistry and Medicine, pp 319-349, Raven Press Ltd., New York, which are expressly incorporated herein by reference.” left out

Row | SMILES | IC50 [1] | Cutaneous Toxicity Score (Blackjack Score) ([2]; 100 nmole (nmol/25 g)) | Cutaneous Toxicity Score (Blackjack Score) ([2]; 300 nmole (nmol/25 g)) | Cutaneous Toxicity Score (Blackjack Score) ([2]; 1000 nmole (nmol/25 g)) | Kd [3] | Kd [4] | Kd [5]
1 | CC1(C)CN(C2CC2)Cc2ccc(C#Cc3ccc(CC(=O)O)c(F)c3)cc21 [Compound 22, [4-(2-Cyclopropyl-4,4-dimethyl-1,2,3,4-tetrahydro-isoquinoline-6-yl-ethynyl)-2-fluoro-phenyl]-acetic Acid] | 1600 nM | 0 ± 0 | 0 ± 0 | 1 ± 1 |  |  | 
2 | CC1(C)CC(C)(C)c2cc(C#Cc3ccc(CC(=O)O)cc3)cc(C3CC3)c2O1 [Compound 36, [4-(8-Cyclopropyl-2,2,4,4-tetramethyl-chroman-6-yl-ethynyl)phenyl]acetic Acid] | 33 nM | 1 ± 1 |  | 11 ± 0 | 492 nM | 13000 nM | 4900 nM
3 | CC1(C)CC(C)(C)c2cc(C#Cc3ccc(CC(=O)O)c(F)c3)cc(C3CC3)c2O1 [Compound 38, [4-(8-Cyclopropyl-2,2,4,4-tetramethyl-chroman-6-yl-ethynyl)-2-fluorophenyl]acetic Acid] | 25 nM | 1 ± 1 |  | 10 ± 1 | 2880 nM |  | 5320 nM
4 | CC1(C)CC2(CC2)Oc2c(C3CC3)cc(C#Cc3ccc(CC(=O)O)cc3)cc21 [Compound 48, Benzeneacetic Acid, 4-[(8-cyclopropyl-3,4-dihydro-4,4-dimethylspiro[2H-1-benzopyran-2,1′-cyclopropane]-6-yl)ethynyl]-] | 30 nM | 1 ± 1 | 3 ± 1 | 7 ± 2 |  |  | 
5 | CC1(C)CC2(CC2)Oc2c(C3CC3)cc(C#Cc3ccc(CC(=O)O)c(F)c3)cc21 [Compound 50, 4-[(8-Cyclopropyl-3,4-dihydro-4,4-dimethylspiro[2H-1-benzopyran-2,1′-cyclopropane]-6-yl)ethynyl]-2-fluoro-benzeneacetic Acid] | 14 nM | 1 ± 0 | 3 ± 2 | 8 ± 2 |  |  | 
6 | CC1(C)CC2(CC2)Oc2c(C3CC3)cc(C(=O)Oc3ccc(CC(=O)O)cc3)cc21 [Compound 58, Spiro[2H-1-benzopyran-2,1′-cyclopropane]-6-carboxylic Acid, 8-cyclopropyl-3,4-dihydro-4,4-dimethyl-, 4-(carboxymethyl)phenyl Ester] | 180 nM | 0 ± 0 | 0 ± 0 | 0 ± 0 |  |  | 
7 | CC1(C)CCC(n2ccnc2)c2ccc(C#Cc3ccc(CC(=O)O)cc3)cc21 (stereo not shown) [Compound 137, [4-(5-Imidazol-1-yl-8,8-dimethyl-5,6,7,8-tetrahydro-naphthalen-2-yl-ethynyl)-phenyl]-acetic Acid] | 100 nM | 1 ± 1 | 1 ± 1 | 5 ± 2 |  |  | 
